Test [1] concerns the target T1, CDGSH iron-sulfur domain-containing protein 1 (Rattus norvegicus, UniProt B0K020).
T1 sequence (B0K020 whole entry): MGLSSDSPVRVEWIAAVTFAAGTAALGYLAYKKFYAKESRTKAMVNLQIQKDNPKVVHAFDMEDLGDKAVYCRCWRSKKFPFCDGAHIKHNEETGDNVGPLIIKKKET
Briefly: Displacement of [3H]rosiglitazone from rat liver mitochondrial mitoNEET by scintillation counting. In general terms: Displacement assays read how much labelled ligand stays bound in the presence of the test substance.

Test [2] relates to SH-SY5Y. Put plainly: Neuroprotective activity against rotenone-induced cell death in human SH-SY5Y assessed as reduction in LDH release pretreated 1 hrs before rotenone challenge measured after 24 hrs relative to control. It counts as functional. Also noted: scale not given: the % may be the effect or the level left.
Test [3] deals with SH-SY5Y. Put plainly: Neuroprotective activity against rotenone-induced cell death in human SH-SY5Y assessed as reduction in LDH release pretreated 1 hrs before rotenone challenge measured after 24 hrs. Format: functional, cell-based. (In general: LDH in the medium is a marker of cell lysis.)
The species named for test [4] is Rattus norvegicus. Briefly: Reduction in state 3 respiration in Sprague-Dawley rat mitochondria. It counts as functional. More on the design: scale not given: the % may be the effect or the level left.
A short description of test [5]: Inhibition of respiration in Sprague-Dawley rat mitochondria assessed as reduction in respiratory control rate. Format: functional.

A word on the IC50: it is the concentration that gives 50% inhibition. In turn, `CCc1ccc(CCOc2ccc(CC3SC(=O)NC3=O)cc2)nc1` (configuration not stated) [PIOGLITAZONE] showed an IC50 in test [1] of 1000 nM.

`CN(CCOc1ccc(CC2SC(=O)NC2=O)cc1)c1ccccn1` (configuration not stated) [ROSIGLITAZONE] registered an IC50 in test [1] of 1100 nM.

`CC(C)(C)c1cc(CC2SC(=O)N=C2O)cc(C(C)(C)C)c1O` (configuration not stated): the Activity in test [2] was 40%; in test [3], “Dose-dependent effect”; in test [4], 45%. Moreover, the figures for the IC50 in test [5] and in test [1] were 2400 nM and 900 nM, respectively.

The record behind these values is ChEMBL document CHEMBL1156847, “Structure-based design of a thiazolidinedione which targets the mitochondrial protein mitoNEET” (Bioorg Med Chem Lett, 2010).
